Reference: the NIST ThermoML archive (doi:10.1016/j.tca.2013.03.025)
Several values for one entry are separate records, joined by “and”; a condition that tells them apart may be missing. Equal entries are not always repeated. ± gives the expanded uncertainty stated by the source.

Assays:
[1] = 101 kPa, Liquid; for viscosity: Concentric cylinders viscometry; for mass density: Vibrating tube method
[2] = refractive index (Na D-line) (dimensionless); settings: 101.33 kPa, Liquid, Standard Abbe refractometry
[3] = xn = mol fraction of the nth substance listed; settings: 101 kPa, Liquid, x2 = 0; for viscosity: Concentric cylinders viscometry; for mass density: Vibrating tube method
[4] = refractive index (Na D-line) (dimensionless); xn = mol fraction of the nth substance listed; settings: 101 kPa, Liquid, Standard Abbe refractometry, x2 = 0

CC(O)CO (stereo not drawn) [1,2-propanediol]
Settings | mass density, [1] [kg/m3] | refractive index, [2] | viscosity, [1] [mPa·s]
288.15 K | 1039.87 ± 0.1 | 1.43437 ± 0.00033 | 82.54 ± 0.87
293.15 K | 1036.25 ± 0.099 | 1.4327 ± 0.00033 | 59.62 ± 0.52
298.15 K | 1032.56 ± 0.097 | 1.43102 ± 0.00033 | 44.03 ± 0.39
303.15 K | 1028.88 ± 0.095 | 1.42934 ± 0.00033 | 33.16 ± 0.3
308.15 K | 1025.14 ± 0.093 | 1.42764 ± 0.00033 | 25.45 ± 0.23
313.15 K | 1021.35 ± 0.092 | 1.42591 ± 0.00033 | 19.85 ± 0.18
318.15 K | 1017.52 ± 0.09 | 1.4242 ± 0.00033 | 15.73 ± 0.14
323.15 K | 1013.66 ± 0.088 | 1.42246 ± 0.00033 | 12.64 ± 0.11

CC(O)CO (stereo not drawn) [1,2-propanediol] + CCCCOC(=O)C(C)O
Settings | mass density, [3] [kg/m3] | refractive index, [4] | viscosity, [3] [mPa·s]
288.15 K | 1039.87 ± 0.1 | 1.43437 ± 0.00033 | 82.54 ± 0.87
293.15 K | 1036.25 ± 0.099 | 1.4327 ± 0.00033 | 59.62 ± 0.52
298.15 K | 1032.56 ± 0.097 | 1.43102 ± 0.00033 | 44.03 ± 0.39
303.15 K | 1028.88 ± 0.095 | 1.42934 ± 0.00033 | 33.16 ± 0.3
308.15 K | 1025.14 ± 0.093 | 1.42764 ± 0.00033 | 25.45 ± 0.23
313.15 K | 1021.35 ± 0.092 | 1.42591 ± 0.00033 | 19.85 ± 0.18
318.15 K | 1017.52 ± 0.09 | 1.4242 ± 0.00033 | 15.73 ± 0.14
323.15 K | 1013.66 ± 0.088 | 1.42246 ± 0.00033 | 12.64 ± 0.11

CCCCOC(=O)C(C)O (stereo not drawn) [butyl 2-hydroxypropanoate]
Settings | mass density, [1] [kg/m3] | refractive index, [2] | viscosity, [1]
288.15 K | 987.269 ± 1.8 | 1.42379 ± 0.00068 | 4.628 ± 0.081 mPa·s
293.15 K | 982.366 ± 1.8 | 1.42152 ± 0.00068 | 3.88 ± 0.068 mPa·s
298.15 K | 977.448 ± 1.8 | 1.41925 ± 0.00068 | 3.307 ± 0.058 mPa·s
303.15 K | 972.515 ± 1.8 | 1.41697 ± 0.00068 | 2.85 ± 0.05 mPa·s and 2.86 ± 0.05 mPa·s
308.15 K | 967.567 ± 1.8 | 1.41469 ± 0.00068 and 1.4147 ± 0.00068 | 2.481 ± 0.043 mPa·s
313.15 K | 962.603 ± 1.8 | 1.4124 ± 0.00068 and 1.41241 ± 0.00068 | 2.181 ± 0.038 mPa·s
318.15 K | 957.624 ± 1.7 | 1.41006 ± 0.00068 and 1.41005 ± 0.00068 | 1.935 ± 0.034 mPa·s
323.15 K | 952.631 ± 1.7 | 1.40778 ± 0.00068 | 1.728 ± 0.031 mPa·s

OCCCO [propan-1,3-diol]
Settings | mass density, [1] [kg/m3] | refractive index, [2] | viscosity, [1] [mPa·s]
288.15 K | 1055.96 ± 0.27 | 1.44072 ± 0.00037 | 66.71 ± 0.68
293.15 K | 1052.86 ± 0.27 | 1.43932 ± 0.00037 | 52.02 ± 0.49
298.15 K | 1049.75 ± 0.27 | 1.43793 ± 0.00037 | 41.11 ± 0.41
303.15 K | 1046.63 ± 0.27 | 1.43653 ± 0.00037 | 32.89 ± 0.33
308.15 K | 1043.5 ± 0.26 | 1.43512 ± 0.00037 | 26.61 ± 0.26
313.15 K | 1040.35 ± 0.26 | 1.43374 ± 0.00037 | 21.76 ± 0.22
318.15 K | 1037.17 ± 0.26 | 1.43232 ± 0.00037 | 17.97 ± 0.18
323.15 K | 1033.98 ± 0.26 | 1.43087 ± 0.00037 | 14.97 ± 0.15

OCCCO [propan-1,3-diol] + CCCCOC(=O)C(C)O
Settings | mass density, [3] [kg/m3] | refractive index, [4] | viscosity, [3] [mPa·s]
288.15 K | 1055.96 ± 0.27 | 1.44072 ± 0.00037 | 66.71 ± 0.68
293.15 K | 1052.86 ± 0.27 | 1.43932 ± 0.00037 | 52.02 ± 0.49
298.15 K | 1049.75 ± 0.27 | 1.43793 ± 0.00037 | 41.11 ± 0.41
303.15 K | 1046.63 ± 0.27 | 1.43653 ± 0.00037 | 32.89 ± 0.33
308.15 K | 1043.5 ± 0.26 | 1.43512 ± 0.00037 | 26.61 ± 0.26
313.15 K | 1040.35 ± 0.26 | 1.43374 ± 0.00037 | 21.76 ± 0.22
318.15 K | 1037.17 ± 0.26 | 1.43232 ± 0.00037 | 17.97 ± 0.18
323.15 K | 1033.98 ± 0.26 | 1.43087 ± 0.00037 | 14.97 ± 0.15

CCCO [propan-1-ol]
Settings | mass density, [1] [kg/m3] | refractive index, [2] | viscosity, [1] [mPa·s]
288.15 K | 807.752 ± 0.14 | 1.38751 ± 0.00033 | 2.514 ± 0.024
293.15 K | 803.767 ± 0.14 | 1.38543 ± 0.00033 | 2.208 ± 0.021
298.15 K | 799.755 ± 0.14 | 1.3834 ± 0.00033 | 1.95 ± 0.019
303.15 K | 795.717 ± 0.14 | 1.38137 ± 0.00033 | 1.727 ± 0.017
308.15 K | 791.638 ± 0.14 | 1.37918 ± 0.00033 | 1.542 ± 0.015
313.15 K | 787.521 ± 0.14 | 1.37702 ± 0.00033 | 1.378 ± 0.014
318.15 K | 783.357 ± 0.15 | 1.37482 ± 0.00033 | 1.236 ± 0.013
323.15 K | 779.137 ± 0.15 | 1.37262 ± 0.00033 | 1.124 ± 0.012

CCCO [propan-1-ol] + CCCCOC(=O)C(C)O
Settings | mass density, [3] [kg/m3] | refractive index, [4] | viscosity, [3] [mPa·s]
288.15 K | 807.752 ± 0.14 | 1.38751 ± 0.00033 | 2.514 ± 0.024
293.15 K | 803.767 ± 0.14 | 1.38543 ± 0.00033 | 2.208 ± 0.021
298.15 K | 799.755 ± 0.14 | 1.3834 ± 0.00033 | 1.95 ± 0.019
303.15 K | 795.717 ± 0.14 | 1.38137 ± 0.00033 | 1.727 ± 0.017
308.15 K | 791.638 ± 0.14 | 1.37918 ± 0.00033 | 1.542 ± 0.015
313.15 K | 787.521 ± 0.14 | 1.37702 ± 0.00033 | 1.378 ± 0.014
318.15 K | 783.357 ± 0.15 | 1.37482 ± 0.00033 | 1.236 ± 0.013
323.15 K | 779.137 ± 0.15 | 1.37262 ± 0.00033 | 1.124 ± 0.012
